From patent US6335332B1, “Barbituric acid derivatives with antimetastatic and antitumor activity” (Roche Diagnostics GmbH, priority 1997, dated 2002)
Like-named read-outs stand apart in the source and are kept apart here.

Assays:
[1] = molecular target: T1, MMP8 (human neutrophil collagenase) catalytic domain (Homo sapiens, UniProt P22894); assay: Inhibition of MMP8 catalytic domain, fluorescent DNP-substrate degradation; assay type: biochemical
T1 construct: by means of the catalytic domain of MMP8
Protocol: Said test provides for the determination via fluorescence of the inhibition of the degradation of a fluorescent substrate (DNP-Pro-Leu-Gly-Leu-Trp-Ala-D-Arg-[…], M1855 Bachem) by means of the catalytic domain of MMP8.
(§1) Reagents: 1) DNP-substrate=DNP-Pro-Leu-Gly-Leu-Trp-Ala-D-Arg-NH2 (M1855 Bachem), M. W. 977,l g/mol, concentration 25 μM in DMSO, 2) measurement buffer=50 mM TRIS/100 mM NaCl/10 mM CaCl2.2H2O, adjusted at pH 7 6 with hydrochloric acid. 3) Enzyme=catalytic domain of MMP8 ([…]), concentration 0.055 mg/ml in TRIS buffer. Substrate and enzyme are maintained at 0° C. with ice bath.
(§2) Total volume=1 ml of solution kept under stirring in a cuvette
(§3) It is measured the fluoresence at 346 nm both of the control solution (without inhibitor) and of the solution containing the inhibitor. The inhibition of the catalytic activity of MMP8 results in the decrease of the DNP-substrate bond's lysis, with related decrease of the fluorescence of the solution.
(§4) The percentage of inhibition is expressed by the following formula:
(§5) % Inhibition=100−(rel. unit/timewith inhibitor/rel. unit/timecontrol×100)
(§6) By repeating the experiment at different concentrations of inhibitor it is possible to determine the IC50 value.

[2] = molecular target: T2, MMP-9 (gelentinase 92 kD) (Homo sapiens, UniProt P14780); assay: Inhibition of MMP-9 catalytic domain (same test as MMP8); assay type: biochemical
T2 construct: MMP-9 IC50; other: catalytic domain
T2 sequence (P14780 with tags, fused parts or gaps DEL217-390 limits assumed): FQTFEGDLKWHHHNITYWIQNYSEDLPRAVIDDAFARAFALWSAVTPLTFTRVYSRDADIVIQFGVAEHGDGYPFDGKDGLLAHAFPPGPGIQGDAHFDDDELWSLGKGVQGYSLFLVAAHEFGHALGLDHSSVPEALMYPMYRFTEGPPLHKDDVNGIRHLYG
Protocol: The compounds of the present invention have been tested in a pharmacological “in vitro” test of inhibition of MMP8 (human neutrophil collagenase). Said test provides for the determination via fluorescence of the inhibition of the degradation of a fluorescent substrate (DNP-Pro-Leu-Gly-Leu-Trp-Ala-D-Arg-[…], M1855 Bachem) by means of the catalytic domain of MMP8.
as §1, §2, §3, §4, §5, §6
The same test has been performed also on the MMP-9 (gelentinase 92 kD) and the selectivity between the two enzymes has been evaluated. Values of MMP-9/MMP-8 rate well below 1 are expected to give rise to less side toxic effects, since MMP-8 seems more involved in the regulation of vital functions that MMP-9 does.

[3] = test system: human fibrosarcoma HT1080 cells; assay: Test of chemoinvasion through Type IV collagen coated Transwell chambers; assay type: cell-based; conditions: HT-1080, concentration 10^-7 M
Protocol: The compounds of the present invention have also shown activity in a test of chemoinvasion. In the test of chemoinvasion the Costar Transwell chambers for cell culture (diameter: 6.5 mm: pore size: 8 μm) are coated with 100 μl of Type IV collagen (diluted solution 50 μg/ml, then evaporation overnight). With the same procedure the chambers are coated with a second layer of Type IV collagen (100 μl of solution at concentration 50 μg/ml). Before use, the chambers are rinsed twice with sterile water and incubated for about 1 hour at 37° C. in a serum-free medium (DMEM).
The human fibrosarcoma HT1080 cells are harvested by trypsin-EDTA treatment, washed with DMEM-10% FCS and incubated for at least 30 minutes at 37° C. in the same medium. The cells are then washed with serum-free DMEM and resuspended in serum-free DMEM added with 0.1% BSA (fraction V), counted and diluted to obtain a final density of 3×10^5 cell/ml.
Preincubated inserts are aspirated to remove the serum-free medium. […]
Incubated filters are then washed with PBS, the cells are fixed 15 min. in 4% paraformaldehyde, permeabilized in methanol (10 minutes, −20° C.) and stained with May-Grunwald-Giemsa. Cells which adhere to the top of the filters are removed with a cotton swab, filters are detached from the bottom of the chambers and analyzed with microscope to determine the number of cells on the lower side of the filters. […]

T1 sequence (P22894 100-262 limits assumed): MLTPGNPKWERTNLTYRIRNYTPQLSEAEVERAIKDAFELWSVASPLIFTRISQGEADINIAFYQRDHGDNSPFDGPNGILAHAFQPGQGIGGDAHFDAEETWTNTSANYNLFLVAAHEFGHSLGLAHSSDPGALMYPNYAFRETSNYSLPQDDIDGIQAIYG

Compound | IC50 [1] | IC50 [2] | inhibition at 0.1 µM [3] | IC50 ([2]; catalytic domain, read-out: MMP-9 IC50)
CCCCCCCCC1(CC(=O)OCC)C(=O)NC(=O)NC1=O [Example 1, 5-octyl-5-(ethoxycarbonylmethyl)barbituric acid] | 107 nM | 19.6 nM |  | 
CCCCCCCCC1(CC(=O)NCCNC(C)=O)C(=O)NC(=O)NC1=O [Example 5, 5-octyl-5-(carboxymethyl)barbituric acid N′-acetyl N-ethylenediamide] | 99 nM | 20 nM |  | 
CCCCCCCCC1(CC(=O)N(CCNC(C)=O)Cc2ccccc2)C(=O)NC(=O)NC1=O [Example 6, 5-octyl-5-(carboxymethyl)barbituric acid N′-acetyl-N-benzyl-N-ethylenediamide] | 68 nM | 14 nM | 73% | 
CNC(=O)[C@H](Cc1ccccc1)NC(=O)[C@H](CC(C)C)[C@H](CSc1ccccc1)C(=O)NO [GI 129471, reference compound] |  |  | 77% | 
CNC(=O)[C@H](Cc1ccccc1)NC(=O)[C@H](CC(C)C)[C@H](CSc1cccs1)C(=O)NO [batimastat, reference compound] |  |  |  | 25 nM
